Data from patent US9315490B2, “2,5-substituted pyrimidines” (Grünenthal GmbH, priority 2014, dated 2016).

target: T1, human PDE4B1 (Homo sapiens, UniProt Q07343); assay: cAMP HTRF assay to determine the activity of hPDE4B1; format: biochemical; details: inhibition of PDE4B at a test concentration of 1 μM
T1 construct: host or cells: Sf9 cells
Summary of the method: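 Human recombinant PDE4B1 from Sf9 cells (4.8 U) in Tris-HCl, MgCl2, DTT, Tween 20 buffer at pH 7.8 with 40 nM cAMP (final), 30 min at room temperature. Reaction stopped with 1 mM IBMX; remaining cAMP detected by HTRF (665/620 nm ratio). IC50 from eight-concentration curves.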

T1 sequence (Q07343 whole entry): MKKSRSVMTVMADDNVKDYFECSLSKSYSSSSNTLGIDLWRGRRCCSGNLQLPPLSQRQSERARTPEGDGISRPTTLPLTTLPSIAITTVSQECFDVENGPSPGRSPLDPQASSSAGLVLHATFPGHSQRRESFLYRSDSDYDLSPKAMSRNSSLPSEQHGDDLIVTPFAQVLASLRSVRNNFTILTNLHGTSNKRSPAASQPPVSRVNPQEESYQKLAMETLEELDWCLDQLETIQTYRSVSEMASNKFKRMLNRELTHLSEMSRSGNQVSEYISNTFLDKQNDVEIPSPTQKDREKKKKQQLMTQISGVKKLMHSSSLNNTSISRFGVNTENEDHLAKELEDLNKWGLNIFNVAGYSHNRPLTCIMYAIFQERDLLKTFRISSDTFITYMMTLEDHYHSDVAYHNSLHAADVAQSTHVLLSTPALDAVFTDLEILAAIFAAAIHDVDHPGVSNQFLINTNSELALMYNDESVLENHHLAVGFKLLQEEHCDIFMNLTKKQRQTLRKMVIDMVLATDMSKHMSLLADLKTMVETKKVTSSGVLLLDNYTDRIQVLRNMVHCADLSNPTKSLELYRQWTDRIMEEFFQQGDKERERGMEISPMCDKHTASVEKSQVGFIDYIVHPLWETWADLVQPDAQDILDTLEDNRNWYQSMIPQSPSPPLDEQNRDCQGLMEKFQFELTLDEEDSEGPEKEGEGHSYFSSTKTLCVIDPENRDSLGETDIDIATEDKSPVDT

SMILES | inhibition at 1 µM
CCN(CC)C(=O)c1ccc2c([S+](C)[O-])cn(-c3ncc(-c4ccccc4F)cn3)c2c1 (stereo not shown) [Example 357, N,N-Diethyl-1-(5-(2-fluorophenyl)pyrimidin-2-yl)-3-(methylsulfinyl)-1H-indole-6-carboxamide] | 107%
C[S+]([O-])c1cn(-c2ncc(-c3ccccc3F)cn2)c2cc(C(=O)N3CCCCC3)ccc12 (stereo not shown) [Example 358, (1-(5-(2-Fluorophenyl)pyrimidin-2-yl)-3-(methylsulfinyl)-1H-indol-6-yl)(piperidin-1-yl)methanone] | 98%
CC1CCCN1C(=O)c1ccc2c([S+](C)[O-])cn(-c3ncc(-c4ccccc4F)cn3)c2c1 (stereo not shown) [Example 359, (1-(5-(2-Fluorophenyl)pyrimidin-2-yl)-3-(methylsulfinyl)-1H-indol-6-yl)(2-methylpyrrolidin-1-yl)methanone] | 90%
CN(CC1CC1)C(=O)c1ccc2c([S+](C)[O-])cn(-c3ncc(-c4ccccc4F)cn3)c2c1 (stereo not shown) [Example 360, N-(Cyclopropylmethyl)-1-(5-(2-fluorophenyl)pyrimidin-2-yl)-N-methyl-3-(methylsulfinyl)-1H-indole-6-carboxamide] | 75%
CC1CCCCN1C(=O)c1ccc2c([S+](C)[O-])cn(-c3ncc(-c4ccccc4F)cn3)c2c1 (stereo not shown) [Example 361, (1-(5-(2-Fluorophenyl)pyrimidin-2-yl)-3-(methylsulfinyl)-1H-indol-6-yl)(2-methylpiperidin-1-yl)methanone] | 40%
CC1CCCN(C(=O)c2ccc3c([S+](C)[O-])cn(-c4ncc(-c5ccccc5F)cn4)c3c2)C1 (stereo not shown) [Example 362, (1-(5-(2-Fluorophenyl)pyrimidin-2-yl)-3-(methylsulfinyl)-1H-indol-6-yl)(3-methylpiperidin-1-yl)methanone] | 78%
CC1CCN(C(=O)c2ccc3c([S+](C)[O-])cn(-c4ncc(-c5ccccc5F)cn4)c3c2)CC1 (stereo not shown) [Example 363, (1-(5-(2-Fluorophenyl)pyrimidin-2-yl)-3-(methylsulfinyl)-1H-indol-6-yl)(4-methylpiperidin-1-yl)methanone] | 41%
C[S+]([O-])c1cn(-c2ncc(-c3ccccc3F)cn2)c2cc(C(=O)N3CCCCCC3)ccc12 (stereo not shown) [Example 364, Azepan-1-yl(1-(5-(2-fluorophenyl)pyrimidin-2-yl)-3-(methylsulfinyl)-1H-indol-6-yl)methanone] | 73%
CN1CCN(C(=O)c2ccc3c([S+](C)[O-])cn(-c4ncc(-c5ccccc5F)cn4)c3c2)CC1 (stereo not shown) [Example 365, (1-(5-(2-Fluorophenyl)pyrimidin-2-yl)-3-(methylsulfinyl)-1H-indol-6-yl)(4-methylpiperazin-1-yl)methanone] | 54%
CC(C)N(C(=O)c1ccc2c([S+](C)[O-])cn(-c3ncc(-c4ccccc4F)cn3)c2c1)C(C)C (stereo not shown) [Example 366, 1-(5-(2-Fluorophenyl)pyrimidin-2-yl)-N,N-diisopropyl-3-(methylsulfinyl)-1H-indole-6-carboxamide] | 30%
CN(C)CCN(C)C(=O)c1ccc2c([S+](C)[O-])cn(-c3ncc(-c4ccccc4F)cn3)c2c1 (stereo not shown) [Example 367, N-(2-(Dimethylamino)ethyl)-1-(5-(2-fluorophenyl)pyrimidin-2-yl)-N-methyl-3-(methylsulfinyl)-1H-indole-6-carboxamide] | 40%
C[S+]([O-])c1cn(-c2ncc(-c3ccccc3F)cn2)c2cc(C(=O)N3CCSCC3)ccc12 (stereo not shown) [Example 368, (1-(5-(2-Fluorophenyl)pyrimidin-2-yl)-3-(methylsulfinyl)-1H-indol-6-yl)(thiomorpholino)methanone] | 103%
CN(CCC(=O)O)C(=O)c1ccc2c([S+](C)[O-])cn(-c3ncc(-c4ccccc4F)cn3)c2c1 (stereo not shown) [Example 369, 3-(1-(5-(2-Fluorophenyl)pyrimidin-2-yl)-N-methyl-3-(methylsulfinyl)-1H-indole-6-carboxamido)propanoic acid] | 87%
C[S+]([O-])c1cn(-c2ncc(-c3ccccc3F)cn2)c2cc(C(=O)N3CCC4(COC4)C3)ccc12 (stereo not shown) [Example 370, (1-(5-(2-Fluorophenyl)pyrimidin-2-yl)-3-(methylsulfinyl)-1H-indol-6-yl)(2-oxa-6-azaspiro[3.4]octan-6-yl)methanone] | 23%
CCC1CCCCN1C(=O)c1ccc2c([S+](C)[O-])cn(-c3ncc(-c4ccccc4F)cn3)c2c1 (stereo not shown) [Example 371, (2-Ehylpiperidin-1-yl)(1-(5-(2-fluorophenyl)pyrimidin-2-yl)-3-(methylsulfinyl)-1H-indol-6-yl)methanone] | 32%
CN(C)[C@@H]1CCN(C(=O)c2ccc3c([S+](C)[O-])cn(-c4ncc(-c5ccccc5F)cn4)c3c2)C1 (stereo partly drawn) [Example 374, ((R)-3-(Dimethylamino)pyrrolidin-1-yl)(1-(5-(2-fluorophenyl)-pyrimidin-2-yl)-3-(methylsulfinyl)-1H-indol-6-yl)methanone] | 47%
CCN1CCN(C(=O)c2ccc3c([S+](C)[O-])cn(-c4ncc(-c5ccccc5F)cn4)c3c2)CC1 (stereo not shown) [Example 375, (4-Ethylpiperazin-1-yl)(1-(5-(2-fluorophenyl)pyrimidin-2-yl)-3-(methylsulfinyl)-1H-indol-6-yl)methanone] | 66%
CN1CCCN(C(=O)c2ccc3c([S+](C)[O-])cn(-c4ncc(-c5ccccc5F)cn4)c3c2)CC1 (stereo not shown) [Example 376, (1-(5-(2-Fluorophenyl)pyrimidin-2-yl)-3-(methylsulfinyl)-1H-indol-6-yl)(4-methyl-1,4-diazepan-1-yl)methanone] | 31%
C[S+]([O-])c1cn(-c2ncc(-c3ccccc3F)cn2)c2cc(C(=O)N3CCCCC3CO)ccc12 (stereo not shown) [Example 379, (1-(5-(2-Fluorophenyl)pyrimidin-2-yl)-3-(methylsulfinyl)-1H-indol-6-yl)(2-(hydroxymethyl)piperidin-1-yl)methanone] | 50%
C[S+]([O-])c1cn(-c2ncc(-c3ccccc3F)cn2)c2cc(C(=O)N3CCC(CO)CC3)ccc12 (stereo not shown) [Example 380, (1-(5-(2-Fluorophenyl)pyrimidin-2-yl)-3-(methylsulfinyl)-1H-indol-6-yl)(4-(hydroxymethyl)piperidin-1-yl)methanone] | 9%
CN(C(=O)c1ccc2c([S+](C)[O-])cn(-c3ncc(-c4ccccc4F)cn3)c2c1)C1CCOCC1 (stereo not shown) [Example 382, 1-(5-(2-Fluorophenyl)pyrimidin-2-yl)-N-methyl-3-(methylsulfinyl)-N-(tetrahydro-2H-pyran-4-yl)-1H-indole-6-carboxamide] | 0%
C[S+]([O-])c1cn(-c2ncc(-c3ccccc3F)cn2)c2cc(C(=O)N3CCOC(C)(C)C3)ccc12 (stereo not shown) [Example 383, (2,2-Dimethylmorpholino)(1-(5-(2-fluorophenyl)pyrimidin-2-yl)-3-(methylsulfinyl)-1H-indol-6-yl)methanone] | 68%
C[S+]([O-])c1cn(-c2ncc(-c3ccccc3F)cn2)c2cc(C(=O)N3CCC4(CC3)COC4)ccc12 (stereo not shown) [Example 384, (1-(5-(2-Fluorophenyl)pyrimidin-2-yl)-3-(methylsulfinyl)-1H-indol-6-yl)(2-oxa-7-azaspiro[3.5]nonan-7-yl)methanone] | 3%
CC(=O)N1CCN(C(=O)c2ccc3c([S+](C)[O-])cn(-c4ncc(-c5ccccc5F)cn4)c3c2)CC1 (stereo not shown) [Example 385, 1-(4-(1-(5-(2-Fluorophenyl)pyrimidin-2-yl)-3-(methylsulfinyl)-1H-indole-6-carbonyl)piperazin-1-yl)ethanone] | 0%
CC(C)N1CCN(C(=O)c2ccc3c([S+](C)[O-])cn(-c4ncc(-c5ccccc5F)cn4)c3c2)CC1 (stereo not shown) [Example 386, (1-(5-(2-Fluorophenyl)pyrimidin-2-yl)-3-(methylsulfinyl)-1H-indol-6-yl)(4-isopropylpiperazin-1-yl)methanone] | 6%
CN(C)C1CCN(C(=O)c2ccc3c([S+](C)[O-])cn(-c4ncc(-c5ccccc5F)cn4)c3c2)CC1 (stereo not shown) [Example 387, (4-(Dimethylamino)piperidin-1-yl)(1-(5-(2-fluorophenyl)pyrimidin-2-yl)-3-(methylsulfinyl)-1H-indol-6-yl)methanone] | 8%
COC(=O)C1CCN(C(=O)c2ccc3c([S+](C)[O-])cn(-c4ncc(-c5ccccc5F)cn4)c3c2)C1 (stereo not shown) [Example 388, Methyl 1-(1-(5-(2-fluorophenyl)pyrimidin-2-yl)-3-(methylsulfinyl)-1H-indole-6-carbonyl)pyrrolidine-3-carboxylate] | 45%
C[S+]([O-])c1cn(-c2ncc(-c3ccccc3F)cn2)c2cc(C(=O)N3CCN(CCO)CC3)ccc12 (stereo not shown) [Example 389, (1-(5-(2-Fluorophenyl)pyrimidin-2-yl)-3-(methylsulfinyl)-1H-indol-6-yl)(4-(2-hydroxyethyl)piperazin-1-yl)methanone] | 52%
C[S+]([O-])c1cn(-c2ncc(-c3ccccc3F)cn2)c2cc(C(=O)N3CCS(=O)(=O)CC3)ccc12 (stereo not shown) [Example 390, (1,1-Dioxidothiomorpholino)(1-(5-(2-fluorophenyl)pyrimidin-2-yl)-3-(methylsulfinyl)-1H-indol-6-yl)methanone] | 6%
C[S+]([O-])c1cn(-c2ncc(-c3ccccc3F)cn2)c2cc(C(=O)N3CCN(CCC#N)CC3)ccc12 (stereo not shown) [Example 391, 3-(4-(1-(5-(2-Fluorophenyl)pyrimidin-2-yl)-3-(methylsulfinyl)-1H-indole-6-carbonyl)piperazin-1-yl)propanenitrile] | 31%

same assay, conditions: inhibition of PDE4B at a test concentration of 1 μM, 1 µM

SMILES | Inhibition in %
COC1CCN(C(=O)c2ccc3c([S+](C)[O-])cn(-c4ncc(-c5ccccc5F)cn4)c3c2)CC1 (stereo not shown) [Example 381, (1-(5-(2-Fluorophenyl)pyrimidin-2-yl)-3-(methylsulfinyl)-1H-indol-6-yl)(4-methoxypiperidin-1-yl)methanone] | 12%
